Each structure is given as a SMILES string. Active and inactive are the calls of the source.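 Rule for the calls: active = inhibition above 55% when tested at 5 µM; inactive = the rest.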

For one experiment, the target named is Protein AF-9 (Homo sapiens) (UniProt P42568). Nature of the experiment: inhibitors of AF9 AHD–DOT1L interaction, biochemical, AlphaLISA, percent inhibition, MBP-tagged AHD (AID 1794804). To be noted: MBP-AF9 AHD / biotin-DOT1L peptide binding.
Protein AF-9 (Homo sapiens), sequence (P42568 whole entry, looked up): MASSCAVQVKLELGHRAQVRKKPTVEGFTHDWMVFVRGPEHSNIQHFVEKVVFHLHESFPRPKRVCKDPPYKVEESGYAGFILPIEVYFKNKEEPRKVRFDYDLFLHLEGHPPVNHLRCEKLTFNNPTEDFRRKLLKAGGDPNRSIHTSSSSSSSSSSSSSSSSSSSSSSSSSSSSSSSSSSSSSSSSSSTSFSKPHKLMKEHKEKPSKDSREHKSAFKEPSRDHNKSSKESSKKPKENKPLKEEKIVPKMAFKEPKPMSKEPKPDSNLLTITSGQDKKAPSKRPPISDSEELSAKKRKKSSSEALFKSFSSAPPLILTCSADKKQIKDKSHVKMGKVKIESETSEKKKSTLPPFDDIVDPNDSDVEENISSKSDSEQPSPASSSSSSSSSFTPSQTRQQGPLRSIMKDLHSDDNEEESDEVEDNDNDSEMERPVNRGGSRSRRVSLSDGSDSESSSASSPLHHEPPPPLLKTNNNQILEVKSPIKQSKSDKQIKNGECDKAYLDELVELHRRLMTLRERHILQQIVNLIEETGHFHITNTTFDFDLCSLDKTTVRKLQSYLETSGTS
As for `O=C(NCC1CCNCC1)c1cc2ccc(-c3ccc(N4CCNCC4)cc3)cc2[nH]1`, the result was inactive.

Consider `CC(C)(C)c1ccc(-c2ccc3cc(C(=O)NCC4CCNCC4)sc3c2)cc1`, for which the result was inactive.

For the molecule `O=C(NCC1CCNCC1)c1cc2ccc(-c3cccc(-c4ccccc4)c3)cc2o1`, the outcome was inactive.

In the case of `CC(C)(C)c1ccc(-c2ccc3sc(C(=O)NCC4CCNCC4)cc3c2)cc1`, the outcome was inactive.

Turning to `O=C(NCC1CCNCC1)c1cc2ccc(-c3ccc(CCO)cc3)cc2[nH]1`, the result was inactive.

As to `O=C(NCC1CCNCC1)c1cc2ccc(-c3ccc(C4CCCCC4)cc3)cc2o1`, the outcome was inactive.

`N#Cc1ccc(-c2ccc3cc(C(=O)NCC4CCNCC4)oc3c2)cc1`: the result was inactive.

Take `N#Cc1ccc(-c2ccc3sc(C(=O)NCC4CCNCC4)cc3c2)cc1`: the result was inactive.

Staying with this experiment, now noted: MBP-AF9 AHD / biotin-DOT1L peptide binding, at 5 µM, stronger effect = higher value.
Usually inhibition stands for the share of the control response that was lost under treatment. Turning to `CC(=O)c1ccc(-c2ccc3cc(C(=O)NCC4CCNCC4)[nH]c3c2)cc1`, the inhibition was 37% (inactive).

Regarding `O=C(NCC1CCNCC1)c1cc2ccc(-c3ccc(N4CCOCC4)cc3)cc2o1`, the inhibition is 40% (inactive).

With `O=C(NCC1CCNCC1)c1cc2ccc(-c3ccc(F)cc3)cc2s1`, the inhibition was 21% (inactive).

Take `N#CCc1ccc(-c2ccc3cc(C(=O)NCC4CCNCC4)sc3c2)cc1`: the inhibition is 50% (inactive).

Consider `O=C(NCC1CCNCC1)c1cc2ccc(-c3ccc(C(=O)N4CCCC4)cc3)cc2o1`, for which the inhibition was 1% (inactive).

Regarding `CCN(CC)c1ccc(-c2ccc3cc(C(=O)NCC4CCNCC4)sc3c2)cc1`, the inhibition was 25% (inactive).

Regarding `N#Cc1cccc(-c2ccc3cc(C(=O)NCC4CCNCC4)[nH]c3c2)c1`, the inhibition is 0% (inactive).

For the molecule `COc1ccc(-c2ccc3cc(C(=O)NCC4CCNCC4)sc3c2)cc1`, the inhibition was 43% (inactive).

As to `CC(C)(C)c1ccc(Nc2ccc3sc(C(=O)NCC4CCNCC4)cc3c2)cc1`, the inhibition was 45% (inactive).

Take `O=C(NCC1CCNCC1)c1cc2cc(-c3ccc(C(=O)N4CCCCC4)cc3)ccc2s1`: the inhibition is 31% (inactive).

Turning to `O=C(NCC1CCNCC1)c1cc2ccc(Nc3ccc(OC(F)(F)F)cc3)cc2o1`, the inhibition is 23% (inactive).

In the case of `O=C(NCC1CCNCC1)c1cc2ccc(-c3ccc(C4CCCCC4)cc3)cc2[nH]1`, the inhibition was 31% (inactive).

As to `N#Cc1ccc(-c2ccc3cc(C(=O)NCC4CCNCC4)sc3c2)cc1F`, the inhibition was 26% (inactive).

For `O=C(NCC1CCNCC1)c1cc2ccc(-c3ccc(C(=O)N4CCC(N5CCCCC5)CC4)cc3)cc2s1`, the inhibition was 0% (inactive).

For the molecule `CS(=O)(=O)c1ccc(-c2ccc3cc(C(=O)NCC4CCNCC4)sc3c2)cc1`, the inhibition is 49% (inactive).

With `CC(C)(C)c1cccc(-c2ccc3cc(C(=O)NCC4CCNCC4)[nH]c3c2)c1`, the inhibition was 17% (inactive).

Consider `O=C(NCC1CCNCC1)c1cc2ccc(-c3ccc(CO)cc3)cc2s1`, for which the inhibition was 0% (inactive).

With `O=C(NCC1CCNCC1)c1cc2ccc(-c3ccc(-c4ccccc4)cc3)cc2o1`, the inhibition was 0% (inactive).

Take `Cc1cc(C#N)ccc1-c1ccc2[nH]c(C(=O)NCC3CCNCC3)cc2c1`: the inhibition was 0% (inactive).

For `O=C(NCC1CCNCC1)c1cc2ccc(-c3ccc(O)cc3)cc2s1`, the inhibition was 0% (inactive).

With `O=C(NCC1CCNCC1)c1cc2cc(-c3ccc(N4CCOCC4)cc3)ccc2[nH]1`, the inhibition was 52% (inactive).

On to `O=C(NCC1CCNCC1)c1cc2ccc(Oc3ccc(Oc4ccc(Cl)cc4)cc3)cc2s1`, for which the inhibition was 50% (inactive).

In the case of `O=C(NCC1CCNCC1)c1cc2ccc(-c3ccc(N4CCNCC4)cc3)cc2o1`, the inhibition was 38% (inactive).

Regarding `O=C(NCC1CCNCC1)c1cc2ccc(-c3ccc(C(=O)N4CCCCC4)cc3)cc2o1`, the inhibition was 0% (inactive).

Consider `O=C(NCC1CCNCC1)c1cc2cc(-c3ccc(-c4ccsc4)cc3)ccc2[nH]1`, for which the inhibition is 14% (inactive).

Regarding `O=C(NCC1CCNCC1)c1cc2ccc(-c3ccc(C(=O)N4CCC(N5CCCCC5)CC4)cc3)cc2o1`, the inhibition is 0% (inactive).

`O=C(NCC1CCNCC1)c1cc2ccc(-c3ccc(C(=O)N4CCCCC4)cc3)cc2s1`: the inhibition is 8% (inactive).

Turning to `O=C(NCC1CCNCC1)c1cc2ccc(-c3ccc(N4CCOCC4)cc3)cc2s1`, the inhibition was 40% (inactive).

`O=C(NCC1CCNCC1)c1c[nH]c2ccc(-c3ccc(N4CCCCC4)cc3)cc12`: the inhibition is 43% (inactive).

For `CS(=O)(=O)c1ccc(-c2ccc3cc(C(=O)NCC4CCNCC4)oc3c2)cc1`, the inhibition is 19% (inactive).

In the case of `O=C(NCC1CCNCC1)c1cc2ccc(-c3ccsc3)cc2[nH]1`, the inhibition was 10% (inactive).

Take `N#Cc1ccc(-c2ccc3[nH]c(C(=O)NCC4CCNCC4)cc3c2)cc1F`: the inhibition is 8% (inactive).

For `O=C(NCC1CCNCC1)c1cc2cc(-c3ccc(N4CCNCC4)cc3)ccc2[nH]1`, the inhibition is 36% (inactive).

As to `CN1CCN(c2ccc(-c3ccc4cc(C(=O)NCC5CCNCC5)oc4c3)cc2)CC1`, the inhibition was 32% (inactive).

`O=C(NCc1ccc(-c2ccc3cc(C(=O)NCC4CCNCC4)oc3c2)cc1)OCc1ccccc1`: the inhibition is 27% (inactive).

On to `NC(=O)c1ccc(-c2ccc3cc(C(=O)NCC4CCNCC4)sc3c2)cc1`, for which the inhibition was 0% (inactive).

On to `CC(C)(C)c1ccc(-c2ccc3[nH]c(C(=O)NCC4CCNCC4)cc3c2)cc1`, for which the inhibition was 13% (inactive).

Take `O=C(NCC1CCNCC1)c1cc2ccc(-c3ccc(CN4CCCCC4)cc3)cc2s1`: the inhibition is 45% (inactive).

Regarding `COc1ccc(Oc2ccc3cc(C(=O)NCC4CCNCC4)oc3c2)cc1`, the inhibition was 24% (inactive).

As for `O=C(NCC1CCNCC1)c1cc2ccc(-c3ccc(C(=O)N4CCC(N5CCCC5)CC4)cc3)cc2s1`, the inhibition was 5% (inactive).

In the case of `O=C(NCC1CCNCC1)c1cc2ccc(-c3ccc(Cl)cc3)cc2s1`, the inhibition is 50% (inactive).

In the case of `NCc1ccc(-c2ccc3cc(C(=O)NCC4CCNCC4)[nH]c3c2)cc1`, the inhibition was 11% (inactive).

For the molecule `O=C(NCC1CCNCC1)c1coc2cc(-c3ccc(N4CCCCC4)cc3)ccc12`, the inhibition is 59%.

In the case of `CCN(CC)c1ccc(-c2ccc3cc(C(=O)NCC4CCNCC4)oc3c2)cc1`, the inhibition is 30% (inactive).

On to `Cc1ccc(-c2ccc3cc(C(=O)NCC4CCNCC4)sc3c2)cc1`, for which the inhibition is 47% (inactive).

On to `O=C(NCC1CCNCC1)c1cc2ccc(-c3ccc(C(=O)N4CCCCCC4)cc3)cc2o1`, for which the inhibition is 0% (inactive).

As for `O=C(NCC1CCNCC1)c1cc2ccc(-c3ccc(OC(F)(F)F)cc3)cc2s1`, the inhibition is 14% (inactive).

Consider `O=C(NCC1CCNCC1)c1cc2ccc(N3CCC(N4CCCC4)CC3)cc2s1`, for which the inhibition is 20% (inactive).

Regarding `O=C(NCC1CCNCC1)c1cc2ccc(-c3ccc(C(=O)N4CCCC4)cc3)cc2s1`, the inhibition was 0% (inactive).

`O=C(NCC1CCNCC1)c1cc2ccc(-c3ccc4c(c3)OCCO4)cc2o1`: the inhibition is 33% (inactive).

For the molecule `O=C(NCC1CCNCC1)c1cc2ccc(-c3ccc(N4CCOCC4)cc3)cc2[nH]1`, the inhibition is 29% (inactive).

`O=C(NCC1CCNCC1)c1cc2ccc(Oc3ccc(Oc4ccc(Cl)cc4)cc3)cc2o1`: the inhibition is 20% (inactive).

Turning to `O=C(NCC1CCNCC1)c1cc2cc(Nc3ccc(OC(F)(F)F)cc3)ccc2s1`, the inhibition was 24% (inactive).

As to `CC(=O)Nc1ccc(-c2ccc3cc(C(=O)NCC4CCNCC4)sc3c2)cc1`, the inhibition is 0% (inactive).

As to `O=C(NCC1CCNCC1)c1cc2cc(-c3ccc(C(=O)N4CCCC4)cc3)ccc2s1`, the inhibition is 0% (inactive).

Consider `O=C(NCC1CCNCC1)c1cc2ccc(N3CCC(N4CCCCC4)CC3)cc2s1`, for which the inhibition was 14% (inactive).

On to `O=C(NCC1CCNCC1)c1cc2ccc(Nc3ccc(N4CCCCC4)cc3)cc2o1`, for which the inhibition was 93%.

Still in this experiment, the particulars now being: MBP-AF9 AHD / biotin-DOT1L peptide binding, inhibition, at 20 µM, stronger effect = higher value.
For `O=C(NCC1CCNCC1)c1cc2ccc(-c3ccc(N4CCNCC4)cc3)cc2[nH]1`, the inhibition was found to be 48%.

Molecule `CC(C)(C)c1ccc(-c2ccc3cc(C(=O)NCC4CCNCC4)sc3c2)cc1` displayed an inhibition of 70%.

On to `O=C(NCC1CCNCC1)c1cc2ccc(-c3cccc(-c4ccccc4)c3)cc2o1`, for which the inhibition amounted to 49%.

As to `CC(C)(C)c1ccc(-c2ccc3sc(C(=O)NCC4CCNCC4)cc3c2)cc1`, the inhibition turned out to be 59%.

For `O=C(NCC1CCNCC1)c1cc2ccc(-c3ccc(CCO)cc3)cc2[nH]1`, the inhibition was 22%.

The molecule `O=C(NCC1CCNCC1)c1cc2ccc(-c3ccc(C4CCCCC4)cc3)cc2o1` registered an inhibition of 54%.

`N#Cc1ccc(-c2ccc3cc(C(=O)NCC4CCNCC4)oc3c2)cc1` showed an inhibition of 38%.

With `N#Cc1ccc(-c2ccc3sc(C(=O)NCC4CCNCC4)cc3c2)cc1`, the inhibition amounted to 30%.

The record behind these values is PubChem BioAssay AID1794804 (Yongcheng Song lab at Baylor College of Medicine, 2022).
